Assay results taken from PubChem BioAssay (NCI).
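Compound exposure: 48 hours, 5 concentrations, 96-well plates. GI50 marks 50% less growth. TGI is the concentration that stops growth completely.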

Tests used:
Assay in all cases: growth of human tumour cells (NCI), 48 h
ACHN renal = tested on: ACHN renal
NCI/ADR-RES ovarian = tested on: NCI/ADR-RES ovarian
OVCAR-8 ovarian = tested on: OVCAR-8 ovarian
SK-MEL-28 melanoma = tested on: SK-MEL-28 melanoma
UACC-62 melanoma = tested on: UACC-62 melanoma
SF-539 CNS = tested on: SF-539 CNS
MCF7 breast = tested on: MCF7 breast
IGROV1 ovarian = tested on: IGROV1 ovarian
T-47D breast = tested on: T-47D breast
CCRF-CEM leukemia = tested on: CCRF-CEM leukemia
UACC-257 melanoma = tested on: UACC-257 melanoma
SNB-75 CNS = tested on: SNB-75 CNS
NCI-H522 lung = tested on: NCI-H522 lung
OVCAR-4 ovarian = tested on: OVCAR-4 ovarian
HS 578T breast = tested on: HS 578T breast
SK-OV-3 ovarian = tested on: SK-OV-3 ovarian
CAKI-1 renal = tested on: CAKI-1 renal
RPMI-8226 leukemia = tested on: RPMI-8226 leukemia
TK-10 renal = tested on: TK-10 renal
MDA-MB-435 = tested on: MDA-MB-435
A549 NSCLC = tested on: A549 NSCLC
NCI-H226 lung = tested on: NCI-H226 lung
MDA-MB-231 breast = tested on: MDA-MB-231 breast
HCT-15 colon = tested on: HCT-15 colon
HOP-62 NSCLC = tested on: HOP-62 NSCLC
KM12 colon = tested on: KM12 colon
SK-MEL-5 melanoma = tested on: SK-MEL-5 melanoma
SNB-19 CNS = tested on: SNB-19 CNS
786-0 renal = tested on: 786-0 renal
HT29 colon = tested on: HT29 colon
M14 melanoma = tested on: M14 melanoma
OVCAR-3 ovarian = tested on: OVCAR-3 ovarian
OVCAR-5 ovarian = tested on: OVCAR-5 ovarian
SN12C renal = tested on: SN12C renal
SF-295 CNS = tested on: SF-295 CNS
RXF 393 renal = tested on: RXF 393 renal
U251 CNS = tested on: U251 CNS
BT-549 breast = tested on: BT-549 breast
K-562 leukemia = tested on: K-562 leukemia
MOLT-4 leukemia = tested on: MOLT-4 leukemia
NCI-H460 lung = tested on: NCI-H460 lung
DU-145 prostate = tested on: DU-145 prostate
COLO 205 colon = tested on: COLO 205 colon
HCT-116 colon = tested on: HCT-116 colon
HL-60(TB) leukemia = tested on: HL-60(TB) leukemia
EKVX NSCLC = tested on: EKVX NSCLC
MALME-3M melanoma = tested on: MALME-3M melanoma
SW-620 colon = tested on: SW-620 colon
LOX IMVI melanoma = tested on: LOX IMVI melanoma
PC-3 prostate = tested on: PC-3 prostate
SF-268 CNS = tested on: SF-268 CNS
HOP-92 NSCLC = tested on: HOP-92 NSCLC
UO-31 renal = tested on: UO-31 renal
SK-MEL-2 melanoma = tested on: SK-MEL-2 melanoma
NCI-H23 lung = tested on: NCI-H23 lung

For `Cc1c2c(cc[n+]1Cc1ccccc1)c1ccc(OCC3CCCCC3)cc1n2CC1CCCCC1`, the GI50 (ACHN renal) was 1240 nM, the TGI (ACHN renal) was 2530 nM and the GI50 (NCI/ADR-RES ovarian) was 1750 nM. For the same compound, the TGI (NCI/ADR-RES ovarian) was 4290 nM, the GI50 (OVCAR-8 ovarian) was 364 nM and the TGI (OVCAR-8 ovarian) was 1350 nM. For the same compound, the GI50 (SK-MEL-28 melanoma) was 590 nM, the TGI (SK-MEL-28 melanoma) was 1880 nM and the GI50 (UACC-62 melanoma) was 342 nM. For the same compound, the TGI (UACC-62 melanoma) was 1280 nM, the GI50 (SF-539 CNS) was 1490 nM and the TGI (SF-539 CNS) was 2880 nM. For the same compound, the GI50 (MCF7 breast) was 306 nM, the TGI (MCF7 breast) was 1110 nM and the GI50 (IGROV1 ovarian) was 525 nM. For the same compound, the TGI (IGROV1 ovarian) was 2510 nM, the GI50 (T-47D breast) was 560 nM and the TGI (T-47D breast) was 1790 nM. The GI50 (CCRF-CEM leukemia) was 207 nM, the TGI (CCRF-CEM leukemia) was 787 nM and the GI50 (UACC-257 melanoma) was 299 nM. It also gave a TGI (UACC-257 melanoma) of 961 nM, a GI50 (SNB-75 CNS) of 293 nM and a TGI (SNB-75 CNS) of 1470 nM. The GI50 (NCI-H522 lung) was 261 nM, the TGI (NCI-H522 lung) was 788 nM and the GI50 (OVCAR-4 ovarian) was 235 nM. The TGI (OVCAR-4 ovarian) was 735 nM, the GI50 (HS 578T breast) was 525 nM and the TGI (HS 578T breast) was 4060 nM. The GI50 (SK-OV-3 ovarian) was 506 nM, the TGI (SK-OV-3 ovarian) was 1560 nM and the GI50 (CAKI-1 renal) was 1280 nM. For the same compound, the TGI (CAKI-1 renal) was 2640 nM.
Compound `COc1ccc(OC)c(-c2nc3sccn3c2/C=C2/C(=O)Nc3ccccc32)c1` has a GI50 (RPMI-8226 leukemia) of 241 nM, a TGI (RPMI-8226 leukemia) of 856 nM and a GI50 (ACHN renal) of 610 nM. The TGI (ACHN renal) was 15900 nM, the GI50 (TK-10 renal) was 1290 nM and the TGI (TK-10 renal) was 20200 nM. It also gave a GI50 (MDA-MB-435) of 111 nM, a TGI (MDA-MB-435) of 293 nM and a GI50 (A549 NSCLC) of 849 nM. The TGI (A549 NSCLC) was over 60200 nM, the GI50 (NCI-H226 lung) was 1400 nM and the TGI (NCI-H226 lung) was 4890 nM. The GI50 (NCI/ADR-RES ovarian) was 1420 nM, the TGI (NCI/ADR-RES ovarian) was 7760 nM and the GI50 (MDA-MB-231 breast) was 2110 nM. The TGI (MDA-MB-231 breast) was 25300 nM, the GI50 (HCT-15 colon) was 434 nM and the TGI (HCT-15 colon) was 14800 nM. It also gave a GI50 (HOP-62 NSCLC) of 123 nM, a TGI (HOP-62 NSCLC) of 4410 nM and a GI50 (OVCAR-8 ovarian) of 945 nM. It also gave a TGI (OVCAR-8 ovarian) of over 46500 nM, a GI50 (KM12 colon) of 119 nM and a TGI (KM12 colon) of 2060 nM. The GI50 (SK-MEL-28 melanoma) was 1960 nM, the TGI (SK-MEL-28 melanoma) was 25200 nM and the TGI (SK-MEL-5 melanoma) was 997 nM. The GI50 (SNB-19 CNS) was 1720 nM, the TGI (SNB-19 CNS) was over 22700 nM and the GI50 (786-0 renal) was 273 nM. It also gave a TGI (786-0 renal) of 18600 nM, a GI50 (HT29 colon) of 355 nM and a GI50 (M14 melanoma) of 323 nM. The TGI (M14 melanoma) was 1410 nM, the GI50 (OVCAR-3 ovarian) was 235 nM and the TGI (OVCAR-3 ovarian) was 586 nM. For the same compound, the GI50 (OVCAR-5 ovarian) was 437 nM, the TGI (OVCAR-5 ovarian) was 12800 nM and the GI50 (SN12C renal) was 4650 nM. It also gave a TGI (SN12C renal) of 33800 nM, a GI50 (SF-295 CNS) of 248 nM and a TGI (SF-295 CNS) of 635 nM. The GI50 (RXF 393 renal) was 553 nM, the TGI (RXF 393 renal) was 17900 nM and the GI50 (U251 CNS) was 1060 nM. For the same compound, the TGI (U251 CNS) was 15000 nM, the GI50 (BT-549 breast) was 335 nM and the TGI (BT-549 breast) was 3130 nM. For the same compound, the GI50 (K-562 leukemia) was 490 nM, the TGI (K-562 leukemia) was over 100000 nM and the GI50 (UACC-62 melanoma) was 293 nM. It also gave a TGI (UACC-62 melanoma) of 12800 nM, a GI50 (MOLT-4 leukemia) of 47.2 nM and a TGI (MOLT-4 leukemia) of 18400 nM. For the same compound, the GI50 (MCF7 breast) was 476 nM, the TGI (MCF7 breast) was over 35700 nM and the GI50 (IGROV1 ovarian) was 2100 nM. For the same compound, the TGI (IGROV1 ovarian) was over 86100 nM, the GI50 (NCI-H460 lung) was 511 nM and the TGI (NCI-H460 lung) was over 37600 nM. The GI50 (T-47D breast) was 7820 nM, the TGI (T-47D breast) was over 49400 nM and the GI50 (DU-145 prostate) was 2100 nM. For the same compound, the TGI (DU-145 prostate) was 26500 nM, the GI50 (CCRF-CEM leukemia) was 273 nM and the TGI (CCRF-CEM leukemia) was 5370 nM. It also gave a GI50 (COLO 205 colon) of 595 nM, a GI50 (UACC-257 melanoma) of 11600 nM and a TGI (UACC-257 melanoma) of 34700 nM. The GI50 (HCT-116 colon) was 142 nM, the TGI (HCT-116 colon) was 1520 nM and the GI50 (HL-60(TB) leukemia) was 52.4 nM. It also gave a TGI (HL-60(TB) leukemia) of 26500 nM, a GI50 (EKVX NSCLC) of 2510 nM and a TGI (EKVX NSCLC) of 27700 nM. For the same compound, the GI50 (MALME-3M melanoma) was 979 nM, the TGI (MALME-3M melanoma) was 21200 nM and the GI50 (SNB-75 CNS) was 2950 nM. For the same compound, the TGI (SNB-75 CNS) was over 100000 nM, the GI50 (SW-620 colon) was 506 nM and the TGI (SW-620 colon) was 21400 nM. For the same compound, the GI50 (LOX IMVI melanoma) was 2820 nM, the TGI (LOX IMVI melanoma) was 35100 nM and the GI50 (NCI-H522 lung) was 294 nM. The TGI (NCI-H522 lung) was 17300 nM, the GI50 (PC-3 prostate) was 359 nM and the TGI (PC-3 prostate) was 14200 nM. The GI50 (OVCAR-4 ovarian) was 3010 nM, the TGI (OVCAR-4 ovarian) was over 38700 nM and the GI50 (SF-268 CNS) was 1330 nM. It also gave a TGI (SF-268 CNS) of 24200 nM, a GI50 (HS 578T breast) of 415 nM and a TGI (HS 578T breast) of 2300 nM. The GI50 (HOP-92 NSCLC) was 822 nM, the TGI (HOP-92 NSCLC) was 19100 nM and the GI50 (UO-31 renal) was 1100 nM. For the same compound, the TGI (UO-31 renal) was over 41000 nM, the GI50 (SK-OV-3 ovarian) was 584 nM and the TGI (SK-OV-3 ovarian) was 6360 nM. For the same compound, the GI50 (SK-MEL-2 melanoma) was 713 nM, the TGI (SK-MEL-2 melanoma) was 29400 nM and the GI50 (NCI-H23 lung) was 255 nM. For the same compound, the TGI (NCI-H23 lung) was 1690 nM, the GI50 (CAKI-1 renal) was 506 nM and the TGI (CAKI-1 renal) was 8680 nM.
